# From PubChem BioAssay (NCI)
# Several values for one entry are separate records, joined by “and”; a condition that tells them apart may be missing. Identical values can stand only once.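 Dose response: 5 concentrations. Exposure: 48 h. Format: 96-well plates. Endpoint: linear interpolation; highest concentration if not reached. GI50 is the concentration that inhibits growth by half. Definition used: TGI = concentration required for complete inhibition of growth.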
# Columns and labels:
# Test in all cases: NCI-60 cell line screen, 48 h
# [1] = test system: SR leukemia
# [2] = test system: OVCAR-8 ovarian
# [3] = test system: SK-OV-3 ovarian
# [4] = test system: SF-539 CNS
# [5] = test system: PC-3 prostate
# [6] = test system: SNB-19 CNS
# [7] = test system: M14 melanoma
# [8] = test system: SNB-75 CNS
# [9] = test system: NCI-H460 lung
# [10] = test system: SN12C renal
# [11] = test system: IGROV1 ovarian
# [12] = test system: UO-31 renal
# [13] = test system: U251 CNS
# [14] = test system: RXF 393 renal
# [15] = test system: CAKI-1 renal
# [16] = test system: MCF7 breast
# [17] = test system: LOX IMVI melanoma
# [18] = test system: A549 NSCLC
# [19] = test system: UACC-257 melanoma
# [20] = test system: RPMI-8226 leukemia
# [21] = test system: T-47D breast
# [22] = test system: CCRF-CEM leukemia
# [23] = test system: HCT-116 colon
# [24] = test system: HOP-62 NSCLC
# [25] = test system: OVCAR-5 ovarian
# [26] = test system: SF-295 CNS
# [27] = test system: SF-268 CNS
# [28] = test system: SK-MEL-5 melanoma
# [29] = test system: HCC-2998 colon
# [30] = test system: MDA-MB-231 breast
# [31] = test system: EKVX NSCLC
# [32] = test system: MOLT-4 leukemia
# [33] = test system: HS 578T breast
# [34] = test system: NCI-H23 lung
# [35] = test system: NCI/ADR-RES ovarian
# [36] = test system: SW-620 colon
# [37] = test system: ACHN renal
# [38] = test system: TK-10 renal
# [39] = test system: MALME-3M melanoma
# [40] = test system: HOP-92 NSCLC
# [41] = test system: NCI-H226 lung
# [42] = test system: KM12 colon
# [43] = test system: OVCAR-4 ovarian
# [44] = test system: 786-0 renal
# [45] = test system: HCT-15 colon
# [46] = test system: K-562 leukemia
# [47] = test system: DU-145 prostate
# [48] = test system: SK-MEL-28 melanoma
# [49] = test system: UACC-62 melanoma
# [50] = test system: NCI-H522 lung
# [51] = test system: SK-MEL-2 melanoma
# [52] = test system: HL-60(TB) leukemia
# [53] = test system: MDA-MB-435
# [54] = test system: HT29 colon
# [55] = test system: BT-549 breast
# [56] = test system: COLO 205 colon
smiles,measurement,setting,value
COc1cc(C)c(-c2ccc(OC)c(=O)cc2C)c(OC)c1OC,TGI,[1],> 100 µM
same,TGI,[2],> 100 µM
same,TGI,[3],> 100 µM
same,TGI,[4],> 100 µM
same,TGI,[5],> 100 µM
same,TGI,[6],> 100 µM
same,TGI,[7],> 100 µM
same,GI50,[8],> 100 µM
same,TGI,[8],> 100 µM
same,TGI,[9],> 100 µM
same,TGI,[10],> 100 µM
same,TGI,[11],> 100 µM
same,TGI,[12],> 100 µM
same,TGI,[13],> 100 µM
same,TGI,[14],> 100 µM
same,TGI,[15],> 100 µM
same,TGI,[16],> 100 µM
same,TGI,[17],> 100 µM
same,TGI,[18],> 100 µM
same,TGI,[19],> 100 µM
same,TGI,[20],> 100 µM
same,TGI,[21],> 100 µM
same,TGI,[22],> 100 µM
same,TGI,[23],> 100 µM
same,TGI,[24],> 100 µM
same,TGI,[25],> 100 µM
same,TGI,[26],> 100 µM
same,TGI,[27],> 100 µM
same,TGI,[28],38.3 µM and > 100 µM
same,TGI,[29],> 100 µM
same,TGI,[30],> 100 µM
same,TGI,[31],> 100 µM
same,TGI,[32],> 100 µM
same,GI50,[33],> 100 µM
same,TGI,[33],> 100 µM
same,TGI,[34],> 100 µM
same,GI50,[35],> 100 µM
same,TGI,[35],> 100 µM
same,TGI,[36],> 100 µM
same,TGI,[37],> 100 µM
same,GI50,[38],66.3 µM and > 100 µM
same,TGI,[38],> 100 µM
same,GI50,[39],> 100 µM
same,TGI,[39],> 100 µM
same,GI50,[40],3.53 µM and 22.4 µM
same,TGI,[40],> 100 µM
same,TGI,[41],> 100 µM
same,TGI,[42],> 100 µM
same,GI50,[43],44.2 µM and > 100 µM
same,TGI,[43],> 100 µM
same,TGI,[44],> 100 µM
same,TGI,[45],> 100 µM
same,TGI,[46],> 100 µM
same,TGI,[47],> 100 µM
same,GI50,[48],> 100 µM
same,TGI,[48],> 100 µM
same,TGI,[49],> 100 µM
ClC(Cl)c1nc(-c2ccco2)n2nc(-c3ccccc3)cc2n1,GI50,[50],> 100 µM
same,TGI,[50],> 100 µM
same,GI50,[1],> 60.2 µM
same,TGI,[1],> 100 µM
same,GI50,[2],1.62 µM
same,TGI,[2],> 100 µM
same,GI50,[3],6.76 µM
same,TGI,[3],> 100 µM
same,GI50,[5],1.67 µM
same,TGI,[5],16.2 µM
same,GI50,[6],0.998 µM
same,TGI,[6],> 100 µM
same,GI50,[7],> 100 µM
same,TGI,[7],> 100 µM
same,GI50,[8],0.219 µM
same,TGI,[8],3.07 µM
same,GI50,[9],0.265 µM
same,TGI,[9],0.844 µM
same,GI50,[10],> 100 µM
same,TGI,[10],> 100 µM
same,GI50,[11],> 63.1 µM
same,TGI,[11],> 100 µM
same,GI50,[51],> 100 µM
same,TGI,[51],> 100 µM
same,GI50,[12],1.61 µM
same,TGI,[12],> 23.9 µM
same,GI50,[13],0.343 µM
same,TGI,[13],2.33 µM
same,GI50,[14],0.528 µM
same,TGI,[14],76.4 µM
same,GI50,[52],0.304 µM
same,TGI,[52],1.69 µM
same,GI50,[53],2.64 µM
same,TGI,[53],> 100 µM
same,GI50,[17],> 100 µM
same,TGI,[17],> 100 µM
same,GI50,[18],1.56 µM
same,TGI,[18],6.16 µM
same,GI50,[54],0.338 µM
same,TGI,[54],2.16 µM
same,GI50,[20],0.54 µM
same,TGI,[20],> 22.6 µM
same,GI50,[21],1.47 µM
same,TGI,[21],> 100 µM
same,GI50,[22],> 100 µM
same,TGI,[22],> 100 µM
same,GI50,[23],0.639 µM
same,TGI,[23],> 39.3 µM
same,GI50,[24],0.679 µM
same,TGI,[24],4.5 µM
same,GI50,[25],2.02 µM
same,TGI,[25],> 100 µM
same,GI50,[26],1.66 µM
same,TGI,[26],6.13 µM
same,GI50,[27],1.98 µM
same,TGI,[27],> 100 µM
same,GI50,[28],> 100 µM
same,TGI,[28],> 100 µM
same,GI50,[29],0.553 µM
same,TGI,[29],1.85 µM
same,GI50,[30],0.791 µM
same,TGI,[30],5.02 µM
same,GI50,[31],1.56 µM
same,TGI,[31],5.18 µM
same,GI50,[32],> 100 µM
same,TGI,[32],> 100 µM
same,GI50,[33],2.17 µM
same,TGI,[33],7.46 µM
same,GI50,[34],9.81 µM
same,TGI,[34],> 100 µM
same,GI50,[35],0.801 µM
same,TGI,[35],> 100 µM
same,GI50,[36],0.445 µM
same,TGI,[36],> 82.5 µM
same,GI50,[37],0.365 µM
same,TGI,[37],2.03 µM
same,GI50,[38],4.96 µM
same,TGI,[38],> 100 µM
same,GI50,[39],> 100 µM
same,TGI,[39],> 100 µM
same,GI50,[40],0.535 µM
same,TGI,[40],3.64 µM
same,GI50,[41],> 100 µM
same,TGI,[41],> 100 µM
same,GI50,[42],0.352 µM
same,TGI,[42],1.71 µM
same,GI50,[43],5.45 µM
same,TGI,[43],> 100 µM
same,GI50,[44],> 23.5 µM
same,TGI,[44],> 100 µM
same,GI50,[45],0.617 µM
same,TGI,[45],> 100 µM
same,GI50,[55],> 100 µM
same,TGI,[55],> 100 µM
same,GI50,[46],> 39.1 µM
same,TGI,[46],> 100 µM
same,GI50,[47],0.355 µM
same,TGI,[47],1.41 µM
same,GI50,[48],3.76 µM
same,TGI,[48],> 100 µM
same,GI50,[56],1.15 µM
same,TGI,[56],3.58 µM
same,GI50,[49],> 100 µM
same,TGI,[49],> 100 µM
